In patent US20240390369A1, “METHODS FOR DETERMINING RESPONSIVENESS TO TYK2 INHIBITORS” (Bristol-Myers Squibb Company, priority 2021, published 2024):

Tested on: patients with psoriatic arthritis
Assay: Phase 2 trial in psoriatic arthritis: ACR20 response at week 16
Format: in vivo, human
Conditions: for ACR20 response rate over time: placebo, sixteen-week treatment period; for Odds Ratio, ACR20 response status / Odds Ratio for ACR20 response: All patients
Method: In a double-blind Phase 2 trial, 203 patients with psoriatic arthritis were randomized into three groups: deucravacitinib 6 mg once daily (N=70), deucravacitinib 12 mg once daily (N=67), or placebo (N=66). All subjects had active psoriatic arthritis according to the Classification Criteria for Psoriatic Arthritis (CASPAR); for active disease, these criteria required ≥3 tender joint count, ≥3 swollen joint count, and a C-reactive protein level above 3 mg/L. Other inclusion criteria included the following: presence of at least one plaque psoriasis lesion, and prior treatment failure with a non-biologic disease modifying anti-rheumatic drug, a non-steroidal anti-inflammatory drug, or a steroid. With respect to treatment history, approximately 70% of subjects had not received prior treatment with a biologic and were biologic naïve, while up to 30% of subjects had failed or had been intolerant to one TNF-inhibitor (TNF=Tumor necrosis factor, also known as TNFα). Randomization was stratified by prior TNF-inhibitor use (experienced/naïve) and body weight (<90 kg and ≥90 kg).
Clinical measures included the Psoriasis […] (PASI) score for skin psoriasis, American College of Rheumatology 20 (ACR20) response, Psoriatic Arthritis Disease Activity Score (PASDAS), Health Assessment Questionnaire-Disability Index (HAQ-DI), and Disease Activity Score 28 CRP (DAS28). To evaluate the predictive value of different protein measurements for the clinical response to deucravacitinib, baseline protein concentrations for responders and non-responders, as defined by ACR20 or PASI75 at week 16, were compared for each arm (placebo, 6 mg deucravacitinib once-daily, and 12 mg deucravacitinib once-daily).
Boxplots for baseline protein level by response were generated with a horizontal line indicating the median protein level at baseline. For each treatment arm, a two-sample t-test was performed to test whether mean baseline serum protein level was different in responders versus non-responders. A Wilcoxon rank sum test (Mann-Whitney U test) was also performed to evaluate the difference in median serum protein level between responders and non-responders. Further, barplots of ACR20 and PASI75 response rate at week 16 for each treatment arm were generated for all subjects (protein level high and protein level low subjects, dichotomized according to median baseline level). Line plots of ACR20 and PASI75 response rate over time for each treatment arm were generated for protein level high and protein level low groups. Logistic regression models were also fit to evaluate associations between baseline protein levels and clinical outcome.
For certain analyses described herein, patients were dichotomized by median values (e.g., of the proteins listed above or other measures) into “high” and “low” groups, such that the high group had values above the median and the low group had values less than or equal to the median.
In addition, logistic regression models were fit for response measures ACR20 and PASI75, to generate the odds ratio of each of the deucravacitinib treatment arms versus placebo, in BD2-high and BD2-low groups. The following logistic regression models were used: • For ACR20 response status: ACR20 (Y/N)=treatment arm+BD2 group+treatment arm*BD2 group+TNF-inhibitor use+baseline weight (continuous). • For PASI75 response status: PASI75 (Y/N)=treatment arm+BD2 group+treatment arm*BD2 group+TNF-inhibitor use+baseline weight (continuous). […] FIGS. 26-31 are forest plots summarizing the logistic regression results of these models (for BD2 and other biomarkers described herein); each “N,” for “Placebo” and “Deucrava,” represents the number of responders in that group. […]

[1] = 6 mg QD, Above median baseline CRP level
[2] = 6 mg QD, Below median baseline CRP level
[3] = 12 mg QD, Above median baseline CRP level
[4] = 12 mg QD, Below median baseline CRP level

Q: `[2H]C([2H])([2H])NC(=O)c1nnc(NC(=O)C2CC2)cc1Nc1cccc(-c2ncn(C)n2)c1OC` [deucravacitinib, 6-(cyclopropanecarboxamido)-4-((2-methoxy-3-(1-methyl-1H-1,2,4-triazol-3-yl)phenyl)amino)-N-(methyl-d3)pyridazine-3-carboxamide] was tested. Which “Interaction Term for ACR20 response (ratio of odds ratios)” value (6 mg QD vs placebo: BD2 high versus BD2 low, week 16) did it give?
A: 3.16

Q: What about the “Interaction Term: treatment arm*CRP group, ACR20” value (6 mg QD vs placebo: CRP high versus CRP low) of the same compound?
A: 0.786

Q: What about the “Interaction Term: treatment arm*CRP group, ACR20” value (6 mg QD vs placebo: CRP-high versus CRP-low, adjusted for baseline DAS28) of the same compound?
A: 0.788

Q: And the “Interaction Term for ACR20 response (ratio of odds ratios)” value (6 mg QD vs placebo: IL-17A high versus IL-17A low, week 16)?
A: 3.10

Q: What about the “Interaction Term for ACR20 response (ratio of odds ratios)” value (6 mg QD vs placebo: IL-19 high versus IL-19 low, week 16) of the same compound?
A: 3.33

Q: What about the “ACR20 response rate over time” value (6 mg QD, 12 mg QD, BD2-high and BD2-low groups (FIG. 10)) of the same compound?
A: higher ACR20 response rates to deucravacitinib over time, compared to the response rate in the placebo arm, were observed in the BD2-high group but not in the BD2-low group

Q: And the “ACR20 response rate over time” value (6 mg QD, 12 mg QD, CRP-high and CRP-low groups (FIG. 41))?
A: higher response rates than the placebo arm

Q: And the “ACR20 response rate over time” value (6 mg QD, 12 mg QD, IL-17A-high and IL-17A-low groups (FIG. 24))?
A: higher ACR20 response rates over time were observed in the deucravacitinib treatment arms compared to placebo in IL-17A-high but not in IL-17A-low groups

Q: What about the “ACR20 response rate over time” value (6 mg QD, 12 mg QD, IL-19-high and IL-19-low groups (FIG. 17)) of the same compound?
A: higher ACR20 response rates to deucravacitinib over time compared to placebo were observed in IL-19-high but not in IL-19-low groups

Q: What about the Number of subjects (6 mg QD, ACR20 non-responder at week 16, above median baseline BD2 level) of the same compound?
A: 20

Q: What about the Number of subjects (6 mg QD, ACR20 non-responder at week 16, above median baseline IL-17A level) of the same compound?
A: 14

Q: And the Number of subjects (6 mg QD, ACR20 non-responder at week 16, above median baseline IL-19 level)?
A: 17

Q: What about the Number of subjects (6 mg QD, ACR20 non-responder at week 16, below median baseline BD2 level) of the same compound?
A: 14

Q: And the Number of subjects (6 mg QD, ACR20 non-responder at week 16, below median baseline IL-17A level)?
A: 19

Q: What about the Number of subjects (6 mg QD, ACR20 non-responder at week 16, below median baseline IL-19 level) of the same compound?
A: 16

Q: What about the Number of subjects (6 mg QD, ACR20 responder at week 16, above median baseline IL-17A level) of the same compound?
A: 21

Q: And the Number of subjects (6 mg QD, ACR20 responder at week 16, above median baseline IL-19 level)?
A: 21

Q: What about the Number of subjects (6 mg QD, ACR20 responder at week 16, below median baseline BD2 level) of the same compound?
A: 7

Q: And the Number of subjects (6 mg QD, ACR20 responder at week 16, below median baseline IL-17A level)?
A: 16

Q: And the Number of subjects (6 mg QD, ACR20 responder at week 16, below median baseline IL-19 level)?
A: 16

Q: What about the “Number of subjects, ACR20 Non-responder at week 16” value [1] of the same compound?
A: 17

Q: And the “Number of subjects, ACR20 Responder at week 16” value [1]?
A: 19

Q: And the “Number of subjects, ACR20 Non-responder at week 16” value [2]?
A: 16

Q: What about the “Number of subjects, ACR20 Responder at week 16” value [2] of the same compound?
A: 18

Q: And the “Interaction Term for ACR20 response (ratio of odds ratios)” value (12 mg QD vs placebo: BD2 high versus BD2 low, week 16)?
A: 3.40

Q: And the “Interaction Term: treatment arm*CRP group, ACR20” value (12 mg QD vs placebo: CRP high versus CRP low)?
A: 1.921

Q: And the “Interaction Term: treatment arm*CRP group, ACR20” value (12 mg QD vs placebo: CRP-high versus CRP-low, adjusted for baseline DAS28)?
A: 1.930

Q: And the “Interaction Term for ACR20 response (ratio of odds ratios)” value (12 mg QD vs placebo: IL-17A high versus IL-17A low, week 16)?
A: 2.78

Q: And the “Interaction Term for ACR20 response (ratio of odds ratios)” value (12 mg QD vs placebo: IL-19 high versus IL-19 low, week 16)?
A: 7.35

Q: What about the Number of subjects (12 mg QD, ACR20 non-responder at week 16, above median baseline BD2 level) of the same compound?
A: 10

Q: What about the Number of subjects (12 mg QD, ACR20 non-responder at week 16, above median baseline IL-19 level) of the same compound?
A: 7

Q: And the Number of subjects (12 mg QD, ACR20 non-responder at week 16, below median baseline BD2 level)?
A: 11

Q: And the Number of subjects (12 mg QD, ACR20 non-responder at week 16, below median baseline IL-17A level)?
A: 15

Q: And the Number of subjects (12 mg QD, ACR20 non-responder at week 16, below median baseline IL-19 level)?
A: 17

Q: What about the Number of subjects (12 mg QD, ACR20 responder at week 16, above median baseline BD2 level) of the same compound?
A: 20

Q: What about the Number of subjects (12 mg QD, ACR20 responder at week 16, above median baseline IL-19 level) of the same compound?
A: 21

Q: And the Number of subjects (12 mg QD, ACR20 responder at week 16, below median baseline BD2 level)?
A: 10

Q: What about the Number of subjects (12 mg QD, ACR20 responder at week 16, below median baseline IL-19 level) of the same compound?
A: 20

Q: What about the “Number of subjects, ACR20 Non-responder at week 16” value [3] of the same compound?
A: 9

Q: And the “Number of subjects, ACR20 Responder at week 16” value [3]?
A: 24

Q: What about the “Number of subjects, ACR20 Non-responder at week 16” value [4] of the same compound?
A: 16

Q: And the “Number of subjects, ACR20 Responder at week 16” value [4]?
A: 18

Q: What about the “Odds Ratio, ACR20 response status” value (6 mg QD vs placebo, not adjusted for baseline disease activity) of the same compound?
A: 2.456

Q: What about the “Odds Ratio for ACR20 response” value (6 mg QD vs placebo, week 16) of the same compound?
A: 2.46

Q: What about the “Odds Ratio, ACR20 response status” value (6 mg QD vs placebo, week 16, adjusted for baseline DAS28) of the same compound?
A: 2.443

Q: What about the “Odds Ratio, ACR20 response status” value (12 mg QD vs placebo, not adjusted for baseline disease activity) of the same compound?
A: 3.609

Q: What about the “Odds Ratio for ACR20 response” value (12 mg QD vs placebo, week 16) of the same compound?
A: 3.61

Q: And the “Odds Ratio, ACR20 response status” value (12 mg QD vs placebo, week 16, adjusted for baseline DAS28)?
A: 3.618

Q: And the “Odds Ratio for ACR20 response” value (deucravacitinib treatment arms combined vs placebo, week 16)?
A: 2.961

Q: What about the “Odds Ratio, ACR20 response status” value (treatment arms combined vs placebo) of the same compound?
A: 2.961
